Results on 19 molecules are retold here after patent publication US8772504B2, “Substituted benzoxazole, benzimidazole, oxazolopyridine and imidazopyridine derivatives as gamma secretase modulators” (Janssen Pharmaceuticals, Inc., priority 2009, dated 2014).

What all share (type): cell-based
Assay [1] concerns Aβ42. In words: Screening for γ-secretase-modulating activity, Method 1: Aβ42 sandwich ELISA on SKNBE2 cell media. To be noted: SKNBE2 cells carrying APP 695 wild type. In outline:
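SKNBE2 cells expressing wild-type APP695 were treated with compound for 18 h in Ultraculture/1% glutamine. Secreted Aβ42 was quantified by sandwich ELISA (C-terminal capture, biotinylated 3D6, TMB, 450 nm), with WST-1 used as a toxicity check. IC50 was derived from 4-parameter fits of % inhibition or % of untreated control.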

For assay [2], the system named is Aβtotal. In words: Screening for γ-secretase-modulating activity, Method 1: Aβtotal sandwich ELISA on SKNBE2 cell media. The note with it: SKNBE2 cells carrying APP 695 wild type. In outline: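 SKNBE2 cells expressing wild-type APP 695 were treated with compound for 18 hours. Aβtotal in the medium was measured by sandwich ELISA (6E10 capture, biotinylated 4G8 detection, fluorogenic peroxidase read-out). IC50 came from a 4-parameter fit of % inhibition with top/bottom fixed at 100/0 and Hill slope 1, or as averaged IC50 from % of untreated control.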

In assay [3] the test system is Aβ42. In words: Screening for γ-secretase-modulating activity, Method 2: Aβ42 Alphalisa on SKNBE2 cell supernatant. To be noted: Method 2, Table 3c, SKNBE2 cells carrying APP 695 wild type, overnight incubation. In outline: (§1)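 SKNBE2 cells expressing wild-type APP695, plated at 10^4 cells/well with compound at several concentrations and incubated overnight at 37° C. Aβ42 (C-terminal capture, N-terminal biotinylated detection) and Aβtotal (N-terminal/4G8 pair) measured in supernatant by AlphaLISA. IC50 from 4-parameter fit of percent of compound-free control.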

The test system of assay [4] is Aβtotal. In words: Screening for γ-secretase-modulating activity, Method 2: Aβtotal Alphalisa on SKNBE2 cell supernatant. To be noted: Method 2, Table 3c, SKNBE2 cells carrying APP 695 wild type, overnight incubation. Put shortly: as §1
Where [5] appears, read: Table 3a, 18 hours, XLfit, top/bottom fixed to 100 and 0, hill slope 1.
Where [6] appears, read: Table 3b, non-linear regression of % of control, averaged IC50 values.
The mark [7] stands for this setting: Homo sapiens, Table 3b, non-linear regression of % of control, averaged IC50 values.

With `COc1cc(Nc2cccc3oc(C4CCN(C(C)=O)CC4)nc23)ccc1-n1cnc(C)c1` [Compound 41], the 50% inhibitory concentration (IC50) was over 3000 nM in assay [1] (setting [5]); over 3000 nM in assay [1] (setting [6]); over 3000 nM in assay [2] (setting [5]); over 3000 nM in assay [2] (setting [6]); 7590 nM in assay [3]; over 10000 nM in assay [4].

Consider `COc1cccc(-c2nc3c(Nc4ccc(-n5cnc(C)c5)c(OC)c4)cccc3n2C)c1` [Compound 49], for which the 50% inhibitory concentration (IC50) was 20 nM in assay [1] (setting [5]); 28 nM in assay [1] (setting [6]); over 1000 nM in assay [2] (setting [5]); over 3000 nM in assay [2] (setting [6]); 13 nM in assay [3]; over 10000 nM in assay [4].

As for `COc1cccc(-c2nc3c(Nc4ccc(-n5cnc(C)n5)cc4)cccc3n2C(C)C)c1` [Compound 51], the IC50 in assay [1] (setting [5]) is 53 nM; in assay [1] (setting [6]), 58 nM; in assay [2] (setting [5]), over 3000 nM; in assay [2] (setting [6]) it was over 3000 nM; in assay [3], 79 nM; in assay [4], over 10000 nM.

With `CCOc1cc(C)c(-c2nc3c(Nc4ccc(-n5cnc(C)n5)c(OC)c4)cccc3o2)cc1C(C)C` [Compound 59], the concentration for half-maximal inhibition (IC50) in assay [1] (setting [5]) was 7300 nM; in assay [1] (setting [6]), 7760 nM; in assay [2] (setting [5]) it was 26400 nM; in assay [2] (setting [6]) it was over 30000 nM; in assay [3], over 3000 nM; in assay [4], over 3000 nM.

Consider `COc1cc(Nc2cccc3c2nc(-c2ccccc2F)n3C)ccc1-n1cnc(C)c1` [Compound 66], for which the IC50 is 27 nM in assay [1] (setting [5]); 24 nM in assay [1] (setting [6]); over 3000 nM in assay [2] (setting [5]); over 3000 nM in assay [2] (setting [6]); 21 nM in assay [3]; over 10000 nM in assay [4].

As to `Cc1cn(-c2ccc(Nc3cccc4c3nc(-c3ccc(F)cc3)n4C)cn2)cn1` [Compound 68], the IC50 is 27 nM in assay [1] (setting [5]); 26 nM in assay [1] (setting [6]); over 1000 nM in assay [2] (setting [5]); over 1000 nM in assay [2] (setting [6]); 35 nM in assay [3]; over 10000 nM in assay [4].

Turning to `COc1cc(Nc2cccc3c2nc(-c2ccc(F)cc2)n3C(C)(C)C)ccc1-n1cnc(C)n1` [Compound 78], the half-maximal inhibitory concentration (IC50) in assay [1] (setting [5]) was under 110 nM; in assay [1] (setting [6]) it was under 110 nM; in assay [2] (setting [5]), over 3000 nM; in assay [2] (setting [6]) it was over 3000 nM; in assay [3] it was 100 nM; in assay [4], over 10000 nM.

Consider `COc1cc(Nc2cccc3oc(-c4cccnc4)nc23)ccc1-n1cnc(C)c1` [Compound 86], for which the half-maximal inhibitory concentration (IC50) in assay [1] (setting [5]) is over 3000 nM; in assay [1] (setting [6]), over 3000 nM; in assay [2] (setting [5]) it was over 3000 nM; in assay [2] (setting [6]), over 3000 nM; in assay [3] it was over 10000 nM; in assay [4], over 10000 nM.

Consider `Cc1ncn(-c2ccc(Nc3cccc4oc(CC(C)C)nc34)nc2)n1` [Compound 87], for which the IC50 was over 3000 nM in assay [1] (setting [5]); over 3000 nM in assay [1] (setting [6]); over 3000 nM in assay [2] (setting [5]); over 10000 nM in assay [3]; over 10000 nM in assay [4].

Take `Cc1ncn(-c2ccc(Nc3cccc4c3nc(-c3ccc(F)cc3)n4C(C)C)nc2)n1` [Compound 89]: the IC50 in assay [1] (setting [5]) is 326 nM; in assay [1] (setting [6]) it was 324 nM; in assay [2] (setting [5]), over 3000 nM; in assay [2] (setting [6]), over 3000 nM; in assay [3], 575 nM; in assay [4], over 10000 nM.

With `Cc1ncn(-c2c(F)cc(Nc3cccc4c3nc(-c3ccc(F)cc3)n4C)cc2F)n1` [Compound 102], the half-inhibitory concentration (IC50) in assay [1] (setting [5]) was 839 nM; in assay [1] (setting [6]), 871 nM; in assay [2] (setting [5]) it was over 3000 nM; in assay [2] (setting [6]) it was over 3000 nM; in assay [3], 1290 nM; in assay [4], 8130 nM.

Take `COc1cc(Nc2cccc3c2nc(-c2ccc(C(F)(F)F)nc2)n3C(C)C)ccc1-n1cnc(C)c1` [Compound 117]: the half-maximal inhibitory concentration (IC50) in assay [1] (setting [6]) was 33 nM; in assay [2] (setting [6]), over 3000 nM; in assay [3] it was 28 nM; in assay [4], over 10000 nM.

`COc1cc(Nc2cccc3c2nc(-c2ccc(Cl)s2)n3C(C)C)ccc1-n1cnc(C)n1` [Compound 121]: the IC50 in assay [1] (setting [6]) is 20 nM; in assay [2] (setting [6]), over 3000 nM; in assay [3], 34 nM; in assay [4] it was over 10000 nM.

On to `Cc1cn(-c2ccc(Nc3nccc4c3nc(-c3ccc(F)cc3)n4C)cc2F)cn1` [Compound 137], for which the IC50 in assay [1] (setting [6]) was 50 nM; in assay [2] (setting [6]) it was over 3000 nM; in assay [3], 21 nM; in assay [4], over 10000 nM.

As to `COc1nc(Nc2nc(C)cc3c2nc(-c2ccccc2Cl)n3C)ccc1-n1cnc(C)c1` [Compound 149], the 50% inhibitory concentration (IC50) in assay [1] (setting [6]) is 316 nM; in assay [2] (setting [6]), over 10000 nM; in assay [3] it was 195 nM; in assay [4], 9770 nM.

Turning to `COc1nc(Nc2nc(C)cc3c2nc(-c2ccc(F)cc2)n3C)ccc1-n1cnc(C)c1` [Compound 150], the IC50 was determined as 437 nM in assay [1] (setting [6]), 6920 nM in assay [2] (setting [6]), 145 nM in assay [3] and 4900 nM in assay [4].

Take `COc1nc(Nc2cc(F)cc3c2nc(-c2ccccc2Cl)n3C)ccc1-n1cnc(C)c1` [Compound 151]: the half-inhibitory concentration (IC50) in assay [1] (setting [6]) was 5 nM; in assay [2] (setting [6]) it was over 3000 nM; in assay [3] it was 11 nM; in assay [4], 4900 nM.

As for `COc1cccc(-c2nc3c(Nc4ccc(-n5cnc(C)n5)c(OC)c4)nc(C)cc3n2C)c1` [Compound 163], the half-maximal inhibitory concentration (IC50) in assay [1] (setting [6]) was 48 nM; in assay [2] (setting [6]) it was over 3000 nM; in assay [3], 29 nM; in assay [4], 4270 nM.

On to `COCCCc1cc(Nc2ccc(-n3cnc(C)n3)c(OC)c2)c2nc(-c3ccc(F)cc3)n(C)c2n1` [Compound 208], for which the half-inhibitory concentration (IC50) is 35 nM in assay [1] (setting [7]), over 3000 nM in assay [2] (setting [7]), 91 nM in assay [3] (Homo sapiens) and over 10000 nM in assay [4] (Homo sapiens).
